Among the data in the METLIN SMRT retention time set (Domingo-Almenara et al. 2019) are RP-LC retention time values, retold here.

Each structure is given as a SMILES string.

The series in a line: gradient 5% acetonitrile 3 min, to 50% in 2 min, to 85% in 15 min, held 3 min, 100 µL/min. The settings on record: column: Zorbax Extend-C18 2.1 x 50 mm; eluents: water / acetonitrile, 0.1% formic acid. An outline of the steps: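 Retention times come from adduct peaks that were picked computationally and then checked by hand. The standards, pure and pooled in mixtures of ~100 molecules, were run on a Zorbax Extend-C18 column (2.1 × 50 mm, 1.8 μm) at 100 μL/min with water and acetonitrile, each with 0.1% formic acid. Detection was by quadrupole time-of-flight mass spectrometry in positive and negative ionization mode, with a dead volume of 40 μL and a dwell volume of 900 μL.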
`Cc1nc(CNC(=O)C2CCN(C(=O)NCCc3ccccc3)CC2)cs1` gave an RP-LC retention time of 660 s.

Compound `COCCNC(=O)C1(c2ccc(NC(=O)c3cccs3)cc2)CC1` gave an RP-LC retention time of 730 s.

In the case of `COCC1CN(Cc2cc3ccc(C)cc3[nH]c2=O)CCC1(F)F` (stereo not drawn), the RP-LC retention time came to 629 s.

Compound `CN(C)CCNC(=O)c1ccc(CS(=O)(=O)c2c(Cl)cccc2Cl)o1` yielded an RP-LC retention time of 595 s.

As for `COCCN(C)C(=O)c1cn(C2CN(S(=O)(=O)C(C)C)C2)nn1`, the RP-LC retention time was found to be 635 s.

Compound `CC1(C(=O)NCc2ccccc2)CN(S(=O)(=O)c2ccccc2)CC(=O)N1CCC1=CCCCC1` (stereo not drawn) registered an RP-LC retention time of 1090 s.

Turning to `O=C(Cn1c(=O)c2cccn2c2ccc(F)cc21)N1CCCCCC1`, the RP-LC retention time worked out at 840 s.

Turning to `Cc1nc2nc(-c3ccc(C(C)(C)C)cc3)nn2c(C)c1CC(=O)N1CCC(C)CC1`, the RP-LC retention time came out at 1090 s.

In turn, `Cc1ccc(CN2CCC(c3nc(-c4cnccn4)n[nH]3)CC2)c(C)c1` had an RP-LC retention time of 593 s.

The compound `O=C(Nc1cccnc1)C1CCN(S(=O)(=O)c2cccnc2)CC1` came in with an RP-LC retention time of 591 s.

Compound `O=C(NCCCn1nc(-c2ccc(F)cc2)ccc1=O)c1cccc(-n2cnnn2)c1` came in with an RP-LC retention time of 683 s.

The compound `Cc1ccccc1-c1nnc(CSc2nnc(NC(=O)c3cccc(Cl)c3)s2)o1` returned an RP-LC retention time of 1040 s.

In turn, `COc1ccc(OC)c(NC(=O)NC2CCN(c3cc(C)cc(C)c3)C2=O)c1` (stereo not drawn) had an RP-LC retention time of 887 s.

As to `CCC(C)NC(=O)C1CCCN(C(=O)c2[nH]c(C)c(C(=O)OC(C)C)c2C)C1` (stereo not drawn), the RP-LC retention time turned out to be 774 s.

Consider `CC(C)Cc1ccc(S(=O)(=O)N(C)C2CCc3nn(CC4CC4)c(=O)n3CC2)cc1` (stereo not drawn), for which the RP-LC retention time is 914 s.

Take `O=C(Cn1cccc(-c2nc(-c3ccc(F)cc3)no2)c1=O)Nc1ccc2c(c1)OCO2`: the RP-LC retention time was 850 s.

As for `CC(C)N1C(=O)C(C)(C(=O)NCc2ccccc2Cl)Oc2cccnc21` (stereo not drawn), the RP-LC retention time is 974 s.

For the compound `Cc1cccc(CNC(=O)CN2C(=O)CCc3cc(S(=O)(=O)N4CCCCC4C)ccc32)c1` (stereo not drawn), the RP-LC retention time amounted to 998 s.

`O=C([C@@H]1C[C@H](Oc2cccnc2)CN1C(=O)c1n[nH]c(=O)c2ccccc12)N1CCCC1` had an RP-LC retention time of 564 s.

`Cc1ccc(C)c(-c2cn3ccn(-c4cccc(F)c4)c(=O)c3n2)c1` gave an RP-LC retention time of 892 s.

As for `COc1ccccc1-c1noc(-c2nn(-c3ccc(F)c(F)c3)ccc2=O)n1`, the RP-LC retention time is 807 s.

In the case of `COCCNC(=O)c1nc(-c2ccnc(N3CCCC3)c2)no1`, the RP-LC retention time stood at 585 s.

In turn, `Cn1cc(-c2cc3n(n2)CCCN3C(=O)CCC(=O)NCCCN2CCCC2)c2ccccc21` gave an RP-LC retention time of 620 s.

In turn, `CCc1ccc(NC(=O)C2CCCN(S(=O)(=O)c3c[nH]c(C(=O)N4CCCCCC4)c3)C2)cc1` (stereo not drawn) returned an RP-LC retention time of 923 s.

As for `CC(C)C(=O)Nc1ccc2c(c1)nc(CN1CCN(C(=O)c3ccco3)CC1)n2C`, the RP-LC retention time stood at 605 s.

`CCOc1nc2ccccc2nc1N1CCCC(C(=O)Nc2cccc(Cl)c2C)C1` (stereo not drawn) displayed an RP-LC retention time of 1310 s.

`C=CCn1c(=O)c2ccccc2n(Cc2nc(-c3ccccc3)no2)c1=O` registered an RP-LC retention time of 1000 s.

With `COc1cc(Cl)ccc1C(=O)N1CCN(c2ccc(-c3nc(C)c(C)s3)cn2)CC1`, the RP-LC retention time was determined as 950 s.

`CCOC(=O)c1noc2ncnc(NCc3ccccc3Cl)c12` displayed an RP-LC retention time of 965 s.

`Cc1nc(-c2ccccc2F)sc1C(=O)NC1CC1` gave an RP-LC retention time of 827 s.

As to `Cc1ccc(CNC(=O)C2CCCN(c3cnn(C)c(=O)c3)C2)cc1` (stereo not drawn), the RP-LC retention time worked out at 715 s.

`O=C(NC1CCN(c2cc(-c3cccs3)[nH]n2)C1)c1ccc(F)c(F)c1` (stereo not drawn) showed an RP-LC retention time of 752 s.

In turn, `CCN1CCCC1CNC(=O)c1nnc(-c2ccc(S(=O)(=O)N3CCC(C)CC3)cc2)o1` (stereo not drawn) showed an RP-LC retention time of 703 s.

For the compound `CC1CCN(S(=O)(=O)c2ccc(-c3nnc(C(=O)NCCCN4CCCC4)o3)cc2)CC1`, the RP-LC retention time amounted to 689 s.

Compound `CCc1nc(-c2csc(S(=O)(=O)N3CCC(C(=O)Nc4ccc(OC)cc4)CC3)c2)no1` had an RP-LC retention time of 930 s.

The compound `Cc1ccc2ncn(C3CCN(C(=O)Nc4ccccc4C)CC3)c(=O)c2c1` gave an RP-LC retention time of 754 s.

The compound `Cc1oc(C2CCN(S(=O)(=O)c3cccc(Cl)c3)CC2)nc1C(=O)N(C)C` came in with an RP-LC retention time of 864 s.

Compound `CC(C)n1c(CCNC(=O)c2cc(F)cc(F)c2)nc2cccnc21` gave an RP-LC retention time of 694 s.

Compound `Cc1nnc(N2CCCC(C(=O)N3CCN(c4ccccn4)CC3)C2)c2nn(-c3ccccc3)c(C)c12` (stereo not drawn) registered an RP-LC retention time of 584 s.

The compound `Cc1c(Cl)ccc2c(=O)c3c([nH]c12)CCN(CC(=O)Nc1cccc(Cl)c1)C3` displayed an RP-LC retention time of 704 s.

Turning to `Cc1cnc(C(=O)N2CC(c3nc(CCOCC4CC4)no3)C2)cn1`, the RP-LC retention time was 706 s.

Take `Cc1cccc(N2CCN(c3ccc4cc(S(=O)(=O)N5CCCCC5)ccc4n3)CC2)c1C`: the RP-LC retention time came to 1320 s.

Regarding `Cc1oc(-c2ccccc2)nc1Cn1ccn2nc(-c3ccc4c(c3)OCO4)cc2c1=O`, the RP-LC retention time was found to be 1060 s.

As for `CCN1c2cc(F)ccc2C(=O)NC12CCN(C(=O)c1ccc(OC)c(OC)c1)CC2`, the RP-LC retention time was determined as 740 s.

The compound `CCn1cc(CN(Cc2c(C)nn(C)c2C)C(=O)C2CCN(c3cnn(C)c(=O)c3)C2)cn1` (stereo not drawn) showed an RP-LC retention time of 603 s.

Consider `CN(C)c1ccc(CN2C(=O)CN(S(C)(=O)=O)CC2(C)C(=O)NCc2ccccc2)cc1` (stereo not drawn), for which the RP-LC retention time turned out to be 622 s.

The compound `CCN(CC)c1ccc(C(=O)N2CCc3nc[nH]c3C2)cc1` returned an RP-LC retention time of 550 s.

With `Cc1csc(-c2ccc(N3CCN(C(=O)c4nn(C)c5ccccc45)CC3)nc2)n1`, the RP-LC retention time turned out to be 864 s.

As for `C=CCn1nnc(NCc2ccc(-c3cccc(Cl)c3C)o2)n1`, the RP-LC retention time stood at 1090 s.

`O=C(O)c1cccc2c1CCN2S(=O)(=O)c1ccccc1F` registered an RP-LC retention time of 812 s.

With `CCc1ccc(S(=O)(=O)c2cnc3ccc(OC)cc3c2N2CCN(C)CC2)cc1`, the RP-LC retention time is 653 s.

On to `Cc1cc(C)c(S(=O)(=O)N2CCC(N3CCN(Cc4ccccc4)C(=O)C3=O)CC2)cc1C`, for which the RP-LC retention time came out at 917 s.

On to `COc1ccccc1N(Cc1nc2nc(C)cc(C)n2n1)C(=O)c1ccco1`, for which the RP-LC retention time is 709 s.

As for `COc1ccc(NS(=O)(=O)c2cc3n(c2)CCCN(C)C3=O)cc1`, the RP-LC retention time amounted to 650 s.

The compound `COc1ccc(NC(=O)CSc2nccc(N3CCN(c4cc(C)ccc4C)CC3)n2)c(OC)c1` registered an RP-LC retention time of 980 s.

Compound `CNC(=O)c1ccc(-c2nc3cc(NS(=O)(=O)c4ccc(F)cc4F)ccc3n2C)cc1` displayed an RP-LC retention time of 645 s.

`Cc1nc(CCNC(=O)[C@H]2CCCN2C(=O)c2ccccc2)cs1`: the RP-LC retention time was 622 s.

In the case of `CC(C)n1c(CCNC(=O)c2c(F)cccc2F)nc2cccnc21`, the RP-LC retention time was 632 s.
